This is an account of results in patent EP4671251A1, “SALTS OF COMPOUNDS, CRYSTAL FORMS THEREOF, PREPARATION METHOD THEREFOR AND USE THEREOF” (TenNor Therapeutics (Suzhou) Limited, priority 2023, dated 2024).

What all share (type): physicochemical
Series [1] can be described thus: Stability test, open conditions at 25 °C/60% RH and 40 °C/75% RH for 3 days. The note with it: for Change in appearance / Change in crystal form / Purity: 3 days. As to the method:
Samples were separately taken from two crystal forms I and II of the monotriphenylacetate salt of the exemplary compound of formula (II) and left to stand in open conditions at 25 °C/60% RH and 40 °C/75% RH for 3 days.
Table 4. Summary of stability study data

The nature of series [2]: Hygroscopicity test (dynamic vapor sorption, DVS). The text has this: The DVS results of the crystal form I (FIG. 12A) show slow weight gains from 0 to 60% RH and 70% RH to 95% RH, and a rapid weight gain from 60% RH to 70% RH.
The nature of series [3]: Kinetic solubility in water and four biological media at 37 °C. The settings on record: for S: Solubility / solubility at 1 h / solubility at 4 h / solubility at 24 h: about 10 mg/mL sample added; for S: Solubility: LOQ = 0.099 µg/mL; for solubility at 1 h / solubility at 4 h / solubility at 24 h: read-out: S: Solubility; for FC: change in appearance: solid by XRPD; for pH: supernatant. As for the experimental part: About 10 mg/mL of sample (on a free base basis) was added to various biological media. After shaking at 100 rpm at 37 °C (for 1/4/24 h), samples 01-05 were centrifuged, and the solids were collected for XRPD test, while the supernatant was used for detection and pH measurement.
Table 9. Kinetic solubility of crystal form I in water and four biological media at 37 °C (mg/mL)

A short description of series [4]: Acceleration stability test at 40 °C and 75% humidity, one month. As for the experimental part:
The commercially available amorphous form of rifabutin and the crystal forms V and VI of the present application were separately placed in a constant-temperature and constant-humidity incubator at 40 °C and 75% humidity for acceleration test. After one month, the change in purity was determined.

Series [5] in a line: Approximate solubility of the starting free base at room temperature. The note with it: room temperature (about 25 °C). As to the method: The approximate solubility of the starting free base of the exemplary compound of formula (II) in 5 single solvents and 9 mixed solvents at room temperature (about 25 °C) was also tested. Table 1. Approximate solubility (mg/mL) of the starting free base at room temperature

Converted amounts (≈) assume the structure as drawn. Where a name gives a salt, the structure may show the parent alone. Read-outs that look alike come from different tables or passages of the source.

For orientation: solubility means how much of the substance goes into solution per volume. For the compound `CO[C@H]1/C=C/O[C@@]2(C)Oc3c(C)c(O)c4c(c3C2=O)C2=NC3(CCN(CCn5c([N+](=O)[O-])cnc5C)CC3)NC2=C(NC(=O)/C(C)=C\C=C\[C@H](C)[C@H](O)[C@@H](C)[C@@H](O)[C@@H](C)[C@H](OC(C)=O)[C@@H]1C)C4=O` [Crystal form I of triphenylacetate salt], the Change in appearance result in series [1] (25 °C/60% RH Open) and in series [1] (40 °C/75% RH Open) was “No change” throughout. Besides, the “Change in crystal form” value in series [1] (25 °C/60% RH Open) and in series [1] (40 °C/75% RH Open) was “No change” in each case. The Purity in series [1] (25 °C/60% RH Open) is given as 98.09 Area%; in series [1] (40 °C/75% RH Open), 98.22 Area%. Also, the “Starting sample Purity” value in series [1] (starting sample, before storage) came out at 97.23 Area%. The same compound came in with a water absorption in series [2] (25 °C/80% RH (relative to 0% RH), about 1 H2O) of 1.5%. Besides, the hygroscopicity result in series [2] (DVS, 25 °C/80% RH) is recorded as “slightly hygroscopic”. The “change in appearance of crystal form before/after DVS evaluation (XRPD)” value in series [2] (before/after DVS) is recorded as “no change”. The “S: Solubility” value was “<LOQ” in series [3] (Water, 1 h); “<LOQ” in series [3] (Water, 4 h); “<LOQ” in series [3] (Water, 24 h). For the same compound, the solubility at 1 h stood at 1300 µg/mL in series [3] (fassgf, pH 1.6, FaSSGF (1.6), 1 h); 12 µg/mL in series [3] (fassif, pH 6.5, FaSSIF (6.5), 1 h); 120 µg/mL in series [3] (fessgf, pH 5, FeSSGF (5.0), 1 h); 120 µg/mL in series [3] (fessif, pH 5, FeSSIF (5.0), 1 h). Besides, the solubility at 4 h in series [3] (fassgf, pH 1.6, FaSSGF (1.6), 4 h) was 1600 µg/mL; in series [3] (fassif, pH 6.5, FaSSIF (6.5), 4 h), 5.7 µg/mL; in series [3] (fessgf, pH 5, FeSSGF (5.0), 4 h), 180 µg/mL; in series [3] (fessif, pH 5, FeSSIF (5.0), 4 h) it was 120 µg/mL. For the same compound, the solubility at 24 h in series [3] (fassgf, pH 1.6, FaSSGF (1.6), 24 h) was about 1600 µg/mL; in series [3] (fassif, pH 6.5, FaSSIF (6.5), 24 h), 7.5 µg/mL; in series [3] (fessgf, pH 5, FeSSGF (5.0), 24 h), 220 µg/mL; in series [3] (fessif, pH 5, FeSSIF (5.0), 24 h) it was 140 µg/mL. The “FC: change in appearance” value is listed as “No” in series [3] (FaSSGF (1.6), 1 h); “No” in series [3] (FaSSGF (1.6), 4 h); “No” in series [3] (FaSSGF (1.6), 24 h); “No” in series [3] (FaSSIF (6.5), 1 h); “No” in series [3] (FaSSIF (6.5), 4 h); “No” in series [3] (FaSSIF (6.5), 24 h). For the same compound, the “FC: change in appearance” value in series [3] (FeSSGF (5.0), 1 h) is given as “No”; in series [3] (FeSSGF (5.0), 4 h), “No”; in series [3] (FeSSGF (5.0), 24 h), “No”; in series [3] (FeSSIF (5.0), 1 h) it was “No”; in series [3] (FeSSIF (5.0), 4 h), “No”; in series [3] (FeSSIF (5.0), 24 h), “No”. The “FC: change in appearance” value in series [3] (Water, 1 h) is given as “No”; in series [3] (Water, 4 h), “No”; in series [3] (Water, 24 h) it was “No”. The pH in series [3] (FaSSGF (1.6), 1 h) turned out to be 1.55; in series [3] (FaSSGF (1.6), 4 h), 1.57; in series [3] (FaSSGF (1.6), 24 h) it was 1.54; in series [3] (FaSSIF (6.5), 1 h) it was 6.37; in series [3] (FaSSIF (6.5), 4 h) it was 6.37; in series [3] (FaSSIF (6.5), 24 h), 6.40. Further, the pH in series [3] (FeSSGF (5.0), 1 h) came out at 5.03; in series [3] (FeSSGF (5.0), 4 h), 5.07; in series [3] (FeSSGF (5.0), 24 h), 5.07; in series [3] (FeSSIF (5.0), 1 h), 4.85; in series [3] (FeSSIF (5.0), 4 h), 4.84; in series [3] (FeSSIF (5.0), 24 h), 4.84. Moreover, the pH is given as 4.45 in series [3] (Water, 1 h); 4.44 in series [3] (Water, 4 h); 4.62 in series [3] (Water, 24 h).

`CO[C@H]1/C=C/O[C@@]2(C)Oc3c(C)c(O)c4c(c3C2=O)C2=NC3(CCN(CC(C)C)CC3)NC2=C(NC(=O)/C(C)=C\C=C\[C@H](C)[C@H](O)[C@@H](C)[C@@H](O)[C@@H](C)[C@H](OC(C)=O)[C@@H]1C)C4=O` [amorphous product of rifabutin, rifabutin] displayed a Purity in series [4] (after one month at 40 °C and 75% humidity) of 95.54%. Also, in series [4] (original sample, before storage), the “purity of the original sample” value is on record as 95.9%.

Regarding `CO[C@H]1/C=C/O[C@@]2(C)Oc3c(C)c(O)c4c(c3C2=O)C2=NC3(CCN(CCn5c([N+](=O)[O-])cnc5C)CC3)NC2=C(NC(=O)/C(C)=C\C=C\[C@H](C)[C@H](O)[C@@H](C)[C@@H](O)[C@@H](C)[C@H](OC(C)=O)[C@@H]1C)C4=O` [starting free base], the solubility in series [5] (2-MeTHF) was over 41400 µg/mL; in series [5] (2-MeTHF:MTBE (1:1) v:v) it was over 42400 µg/mL; in series [5] (EtOAc), over 40800 µg/mL; in series [5] (EtOAc:MTBE (1:1) v:v), over 41400 µg/mL; in series [5] (IPA), over 39200 µg/mL; in series [5] (IPA:H2O (1:1) v:v) it was 20500 to 41000 µg/mL (≈ 21.7 to 43.4 mM). For the same compound, the solubility in series [5] (IPA:H2O (3:1) v:v) was over 41200 µg/mL; in series [5] (IPA:H2O (5:1) v:v) it was over 41200 µg/mL; in series [5] (IPA:H2O (9:1) v:v) it was over 41400 µg/mL; in series [5] (IPA:H2O (19:1) v:v), over 42200 µg/mL; in series [5] (IPA:n-Heptane (1:1) v:v) it was 20700 to 41400 µg/mL (≈ 21.9 to 43.9 mM); in series [5] (MTBE), 6700 to 20100 µg/mL (≈ 7.1 to 21.3 mM). The solubility in series [5] (Toluene) was over 41400 µg/mL; in series [5] (Toluene:MTBE (1:1) v:v), over 42400 µg/mL.
